This assay addresses T1, Bcl-2 protein (Homo sapiens, UniProt P10415, DELINS35-91DVEENRTEAPEGTESE, form not given).
T1 construct: fused on or other part: Bcl-xL (Q07817) residues 29-44 stand in place of Bcl-2's own unstructured loop 35-91; The C-terminal membrane anchor (208-239) is absent
The experiment in a line: Bcl-2 fluorescence polarization assay (FPA) binding. The conditions noted are these: 10 nM Bcl-2 protein, 1 nM fluorescein-labeled BAX peptide, room temperature, read-out: Bcl-2 FPA 11pt Ki. As to the method:
Assays for the inhibition of Bcl-2 were performed in 96-well microtiter plates. Compounds of the instant invention were diluted in DMSO to concentrations between […] and 10 pM and introduced into each well of the plate. A mixture totaling 125 µL per well of assay buffer (20 mM phosphate buffer (pH 7.4), 1 mM EDTA, 0.05% PF-68), 10 nM of Bcl-2 protein (prepared according to the procedure described in PNAS 2001, 98, 3012-3017), 1 nM fluorescein-labeled BAX peptide (prepared in-house), and the DMSO solution of the compound of the instant invention was shaken for 2 minutes and placed in a LJL Analyst (LJL Bio Systems, CA. Polarization was measured at room temperature using a continuous Fluorescein lamp (excitation 485 nm, emission 530 nm). Ki values were calculated using Microsoft Excel.

T1 sequence (P10415 with tags, fused parts or gaps with the stated changes): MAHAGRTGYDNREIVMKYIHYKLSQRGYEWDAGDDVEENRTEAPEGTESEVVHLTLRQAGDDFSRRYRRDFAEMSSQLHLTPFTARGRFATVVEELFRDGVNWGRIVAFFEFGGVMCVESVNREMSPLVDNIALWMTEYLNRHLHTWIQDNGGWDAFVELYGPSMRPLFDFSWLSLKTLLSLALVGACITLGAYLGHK

For `O=C(NS(=O)(=O)c1ccc(NCC2CCOCC2)c([N+](=O)[O-])c1)c1ccc(N2CCC(=Cc3ccccc3-c3ccc(CN4C5CCCC4CC5)s3)CC2)cc1` [Example 71, 4-[4-(2-{5-[8-azabicyclo[3.2.1]oct-8-ylmethyl]-2-thienyl}benzylidene)piperidin-1-yl]-N-({3-nitro-4-[(tetrahydro-2H-pyran-4-ylmethyl)amino]phenyl}sulfonyl)benzamide], the Ki was less than 20 nM. For `CC1(C)[C@H]2CC(CN3CCN(c4ccc(C(=O)NS(=O)(=O)c5ccc(NCC6CCCCC6)c([N+](=O)[O-])c5)cc4)CC3)=C(c3ccc(Cl)cc3)[C@@H]1C2` [Example 19, 4-(4-{[(1R,5R)-2-(4-chlorophenyl)-6,6-dimethylbicyclo[3.1.1]hept-2-en-3-yl]methyl}piperazin-1-yl)-N-({4-[(cyclohexylmethyl)amino]-3-nitrophenyl}sulfonyl)benzamide] the value was 603 nM. For `O=C(NS(=O)(=O)c1ccc(NCC2CCOCC2)c([N+](=O)[O-])c1)c1ccc(N2CCN(Cc3ccccc3-c3ccc(-c4nc(C56CC7CC(CC(C7)C5)C6)cs4)s3)CC2)cc1` [Example 63, 4-[4-(2-{5-[4-(adamantan-1-yl)-1,3-thiazol-2-yl]-2-thienyl}benzyl)piperazin-1-yl]-N-({3-nitro-4-[(tetrahydro-2H-pyran-4-ylmethyl)amino]phenyl}sulfonyl)benzamide] the value was 278 nM; for `CC1(C)[C@H]2C=C(c3ccccc3CN3CCN(c4ccc(C(=O)NS(=O)(=O)c5ccc(NCC6CCOCC6)c([N+](=O)[O-])c5)cc4)CC3)[C@]1(C)CC2` [Example 15, N-({3-nitro-4-[(tetrahydro-2H-pyran-4-ylmethyl)amino]phenyl}sulfonyl)-4-(4-{2-[(1R,4R)-1,7,7-trimethylbicyclo[2.2.1]hept-2-en-2-yl]benzyl}piperazin-1-yl)benzamide], less than 20 nM; for `Cc1cc(-c2ccccc2CN2CCN(c3ccc(C(=O)NS(=O)(=O)c4ccc(NCC5CCOCC5)c([N+](=O)[O-])c4)cc3)CC2)c2nc(C34CC5CC(CC(C5)C3)C4)cn2c1` [Example 25, 4-(4-{2-[2-(adamantan-1-yl)-6-methylimidazo[1,2-a]pyridin-8-yl]benzyl}piperazin-1-yl)-N-({3-nitro-4-[(tetrahydro-2H-pyran-4-ylmethyl)amino]phenyl}sulfonyl)benzamide], 979 nM. The result for `O=C(NS(=O)(=O)c1ccc(NCC2CCOCC2)c([N+](=O)[O-])c1)c1ccc(N2CCC(=Cc3ccccc3-c3cn(C45CC6CC(CC(C6)C4)C5)nc3C(=O)N(c3ccccc3)c3ccccc3)CC2)cc1` [Example 69, 1-[adamantan-1-yl]-4-{2-[(1-{4-[({3-nitro-4-[(tetrahydro-2H-pyran-4-ylmethyl)amino]phenyl}sulfonyl)carbamoyl]phenyl}piperidin-4-ylidene)methyl]phenyl}-N,N-diphenyl-1H-pyrazole-3-carboxamide] reads 789 nM; that for `CC1(C)CCC(NCC2C3CC4CC(C3)CC2C4)C(CN2CCN(c3ccc(C(=O)NS(=O)(=O)c4ccc(NCC5CCOCC5)c([N+](=O)[O-])c4)cc3)CC2)C1` (stereo not shown) [Example 20, 4-{4-[(2-{[adamantan-2-ylmethyl]amino}-5,5-dimethylcyclohexyl)methyl]piperazin-1-yl}-N-({3-nitro-4-[(tetrahydro-2H-pyran-4-ylmethyl)amino]phenyl}sulfonyl)benzamide], greater than 51900 nM.

With `O=C(NS(=O)(=O)c1ccc(NCC2CCCCC2)c([N+](=O)[O-])c1)c1ccc(N2CCC3CC2CN3CC23CC4CC(CC(C4)C2)C3)cc1` (stereo not shown) [Example 8, 4-{6-[adamantan-1-ylmethyl]-2,6-diazabicyclo[3.2.1]oct-2-yl}-N-({4-[(cyclohexylmethyl)amino]-3-nitrophenyl}sulfonyl)benzamide], the Ki is 84.6 nM. For `O=C(NS(=O)(=O)c1ccc(NC2CCOCC2)c([N+](=O)[O-])c1)c1ccc(N2CCN(C(=O)C3C4CC5CC(C4)CC3C5)CC2)cc1` (stereo not shown) [Example 42, 4-{4-[adamantan-2-ylcarbonyl]piperazin-1-yl}-N-{[3-nitro-4-(tetrahydro-2H-pyran-4-ylamino)phenyl]sulfonyl}benzamide] the value was 2480 nM. For `CC1(C)O[C@@H]2[C@@H](CO[C@@]3(COS(=O)(=O)NC(=O)c4ccc(N5CCN(Cc6ccccc6-c6ccc(Cl)cc6)CC5)cc4)OC(C)(C)O[C@@H]23)O1` [Example 56, [(3 aS,5aR,8aR,8bS)-2,2,7,7-tetramethyltetrahydro-3aH-bis[1,3]dioxolo[4,5-b:4′,5′-d]pyran-3a-yl]methyl (4-{4-[(4′-chlorobiphenyl-2-yl)methyl]piperazin-1-yl}benzoyl)sulfamate] the value was less than 20 nM; for `C[C@@H]1[C@@H](Nc2ccc(-c3ccc(C(=O)NS(=O)(=O)c4ccc(NCC5CCCCC5)c([N+](=O)[O-])c4)cc3)cc2)C[C@H]2C[C@@H]1C2(C)C` [Example 6, N-({4-[(cyclohexylmethyl)amino]-3-nitrophenyl}sulfonyl)-4′-{[(1S,2S,3S,5R)-2,6,6-trimethylbicyclo[3.1.1]hept-3-yl]amino}biphenyl-4-carboxamide], 155 nM; for `O=C(NS(=O)(=O)c1ccc(NCC2CCCCC2)c([N+](=O)[O-])c1)c1ccc(N2CCN(C34CC5CC(CC(C5)C3)C4)CC2)cc1` [Example 54, 4-{4-[adamantan-1-yl]piperazin-1-yl}-N-({4-[(cyclohexylmethyl)amino]-3-nitrophenyl}sulfonyl)benzamide], greater than 9730 nM. For `O=C(NS(=O)(=O)c1ccc(NCC2CCOCC2)c([N+](=O)[O-])c1)c1ccc(N2CCN(Cc3ccccc3N3CC4CCC(CC4)C3)CC2)cc1` [Example 33, 4-(4-{2-[3-azabicyclo[3.2.2]non-3-yl]benzyl}piperazin-1-yl)-N-({3-nitro-4-[(tetrahydro-2H-pyran-4-ylmethyl)amino]phenyl}sulfonyl)benzamide] the value was less than 20 nM. For the molecule `CC1(C)C2C=C(c3ccccc3CN3CCN(c4ccc(C(=O)NS(=O)(=O)c5ccc(NCC6CCOCC6)c([N+](=O)[O-])c5)cc4)CC3)C1(C(=O)NCC13CC4CC(CC(C4)C1)C3)CC2` (stereo not shown) [Example 37, N-(adamantan-1-ylmethyl)-7,7-dimethyl-2-{2-[(4-{4-[({3-nitro-4-[(tetrahydro-2H-pyran-4-ylmethyl)amino]phenyl}sulfonyl)carbamoyl]phenyl}piperazin-1-yl)methyl]phenyl}bicyclo[2.2.1]hept-2-ene-1-carboxamide], the Ki turned out to be 165 nM. For `O=C(NS(=O)(=O)c1ccc(NC2CCOCC2)c([N+](=O)[O-])c1)c1ccc(N2CC3CC2CN3C(=O)C23CC4CC(CC(C4)C2)C3)cc1` (stereo not shown) [Example 43, 4-{5-[adamantan-1-ylcarbonyl]-2,5-diazabicyclo[2.2.1]hept-2-yl}-N-{[3-nitro-4-(tetrahydro-2H-pyran-4-ylamino)phenyl]sulfonyl}benzamide] the value was greater than 6250 nM; for `C[C@@H]1[C@@H](NC2CCC(C)(C)CC2CN2CCN(c3ccc(C(=O)NS(=O)(=O)c4ccc(NCC5CCOCC5)c([N+](=O)[O-])c4)cc3)CC2)C[C@@H]2C[C@H]1C2(C)C` (stereo partly drawn) [Example 21, 4-{4-[(5,5-dimethyl-2-{[(1R,2S,3S,5S)-2,6,6-trimethylbicyclo[3.1.1]hept-3-yl]amino}cyclohexyl)methyl]piperazin-1-yl}-N-({3-nitro-4-[(tetrahydro-2H-pyran-4-ylmethyl)amino]phenyl}sulfonyl)benzamide], 5600 nM.

For the origin of these results see patent US8188077B2, “Apoptosis-inducing agents for the treatment of cancer and immune and autoimmune diseases” (Abbott Laboratories, priority 2010, dated 2012).
